Laboratory results published in patent US7595337B2, “Mitotic kinesin inhibitors” (Merck & Co. Inc., priority 2005, dated 2009).

Target: T1, human poly-histidine tagged KSP motor domain (KSP(367H)) (Homo sapiens, UniProt P52732)
T1 construct: were used to amplify the motor domain and the neck linker region; made in house; host or cells: E. coli BL21 (DE3), pRSETa
T1 sequence (P52732 18-359 limits assumed): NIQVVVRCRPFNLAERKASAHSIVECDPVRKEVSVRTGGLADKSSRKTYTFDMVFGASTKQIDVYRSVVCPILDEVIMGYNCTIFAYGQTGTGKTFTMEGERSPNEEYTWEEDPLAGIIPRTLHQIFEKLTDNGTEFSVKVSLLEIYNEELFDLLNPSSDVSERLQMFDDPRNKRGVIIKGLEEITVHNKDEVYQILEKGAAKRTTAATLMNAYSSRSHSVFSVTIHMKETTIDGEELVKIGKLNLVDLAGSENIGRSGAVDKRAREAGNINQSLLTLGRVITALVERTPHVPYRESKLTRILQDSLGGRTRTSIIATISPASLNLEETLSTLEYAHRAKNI
Assay: Kinesin ATPase In Vitro Assay
Format: biochemical
Conditions: for IC50: microtubules, 1 mM ATP, 23° C., quinaldine red/ammonium molybdate phosphate readout
Description: I. Kinesin ATPase In Vitro Assay
Cloning and expression of human poly-histidine tagged KSP motor domain (KSP(367H)): Plasmids for the expression of the human KSP motor domain construct were cloned by PCR using a pBluescript full length human KSP construct (Blangy et al., Cell, vol. 83, pp 1159-1169, 1995) as a template. The N-terminal primer 5′-[…] (SEQ. ID. NO.: 1) and the C-terminal primer 5′-[…] […] (SEQ. ID. NO.: 2)
were used to amplify the motor domain and the neck linker region. The PCR products were digested with AseI and XhoI, ligated into the NdeI/XhoI digestion product of pRSETa (Invitrogen) and transformed into E. coli BL21 (DE3).
Cells were grown at 37° C. to an OD600 of 0.5. After cooling the culture to room temperature expression of KSP was induced with 100 μM IPTG and incubation was continued overnight. Cells were pelleted by centrifugation and washed once with ice-cold PBS. Pellets were flash-frozen and stored −80° C.
Protein Purification: Cell pellets were thawed on ice and resuspended in lysis buffer (50 mM K-HEPES, pH 8.0, 250 mM KCl, 0.1% Tween, 10 mM imidazole, 0.5 mM Mg-ATP, 1 mM PMSF, 2 mM benzimidine, 1× complete protease inhibitor cocktail (Roche)). Cell suspensions were incubated with 1 mg/ml lysozyme and 5 mM β-mercaptoethanol on ice for 10 minutes, followed by sonication (3×30 sec). All subsequent procedures were performed at 4° C. Lysates were centrifuged at 40,000×g for 40 minutes. Supernatants were diluted and loaded onto an SP Sepharose column (Pharmacia, 5 ml cartridge) in buffer A (50 mM K-HEPES, pH 6.8, 1 mM MgCl2, 1 mM EGTA, 10 μM Mg-ATP, 1 mM DTT) and eluted with a 0 to 750 mM KCl gradient in buffer A. Fractions containing KSP were pooled and incubated with Ni-NTA resin (Qiagen) for one hour. The resin was washed three times with buffer B (Lysis buffer minus PMSF and protease inhibitor cocktail), followed by three 15-minute incubations and washes with buffer B. Finally, the resin was incubated and washed for 15 minutes three times with buffer C (same as buffer B except for pH 6.0) and poured into a column. KSP was eluted with elution buffer (identical to buffer B except for 150 mM KCl and 250 mM imidazole). KSP-containing fractions were pooled, made 10% in sucrose, and stored at −80° C.
Microtubules are prepared from tubulin isolated from bovine brain. Purified tubulin (>97% MAP-free) at 1 mg/ml is polymerized at 37° C. in the presence of 10 μM paclitaxel, 1 mM DTT, 1 mM GTP in BRB80 buffer (80 mM K-PIPES, 1 mM EGTA, 1 mM MgCl2 at pH 6.8). The resulting microtubules are separated from non-polymerized tubulin by ultracentrifugation and removal of the supernatant. The pellet, containing the microtubules, is gently resuspended in 10 μM paclitaxel, 1 mM DTT, 50 μg/ml ampicillin, and 5 μg/ml chloramphenicol in BRB80.
The kinesin motor domain is incubated with microtubules, 1 mM ATP (1:1 MgCl2: Na-ATP), and compound at 23° C. in buffer containing 80 mM K-HEPES (pH 7.0), 1 mM EGTA, 1 mM DTT, 1 mM MgCl2, and 50 mM KCl. The reaction is terminated by a 2-10 fold dilution with a final buffer composition of 80 mM HEPES and 50 mM EDTA. Free phosphate from the ATP hydrolysis reaction is measured via a quinaldine red/ammonium molybdate assay by adding 150 μl of quench C buffer containing a 2:1 ratio of quench A:quench B. Quench A contains 0.1 mg/ml quinaldine red and 0.14% polyvinyl alcohol; quench B contains 12.3 mM ammonium molybdate tetrahydrate in 1.15 M sulfuric acid. The reaction is incubated for 10 minutes at 23° C., and the absorbance of the phosphomolybdate complex is measured at 540 nm.

| Structure (SMILES) | IC50 | activity of resolved enantiomer (active / inactive) (assay not named) | relative inhibitory activity of the diastereomers (the cis diastereomer (eluted second) compared with the other, assay not named) |
| --- | --- | --- | --- |
| CC(=O)N1N=C2c3cc(F)ccc3OCC2C1(C)c1ccccc1 (mixture of isomers) [Compound 2-2, 2-acetyl-8-fluoro-3-methyl-3-phenyl-2,3,3a,4-tetrahydrochromeno[4,3-c]pyrazole] | ≤ 30 µM |  |  |
| CC(=O)N1CCN(CCC[C@@]2(c3ccccc3)[C@H]3COc4ccc(F)cc4C3=NN2C(C)=O)CC1 (relative stereo) [Compound 4-1, cis-2-acetyl-3-[3-(4-acetylpiperazin-1-yl)propyl]-8-fluoro-3-phenyl-2,3,3a,4-tetrahydrochromeno[4,3-c]pyrazole] | ≤ 30 µM |  |  |
| CC(=O)N1N=C2c3cc(F)ccc3OCC2C1c1ccccc1 (centres unmarked) [Compound 1-2, 2-acetyl-8-fluoro-3-phenyl-2,3,3a,4-tetrahydrochromeno[4,3-c]pyrazole] | ≤ 30 µM |  | higher inhibitory activity |
| CC(=O)N1N=C2c3cc(F)ccc3OC[C@H]2[C@H]1c1ccccc1 [Compound 1-3, (3S,3aS)-2-acetyl-8-fluoro-3-phenyl-2,3,3a,4-tetrahydrochromeno[4,3-c]pyrazole] | ≤ 30 µM | active |  |
| O=C(N1N=C2c3cc(F)ccc3OCC2C1(CCCO)c1ccccc1)C(F)(F)F (centres unmarked) [Compound 3-7, 3-[8-fluoro-3-phenyl-2-(trifluoroacetyl)-2,3,3a,4-tetrahydrochromeno[4,3-c]pyrazol-3-yl]propan-1-ol] | ≤ 30 µM |  |  |
| CC(=O)N1CCN(CCCC2(c3ccccc3)C3COc4ccc(F)cc4C3=NN2C(=O)C(F)(F)F)CC1 (centres unmarked) [Compound 3-8, 3-[3-(4-acetylpiperazin-1-yl)propyl]-8-fluoro-3-phenyl-2-(trifluoroacetyl)-2,3,3a,4-tetrahydrochromeno[4,3-c]pyrazole] | ≤ 30 µM |  |  |
| CC(=O)N1CCN(CCC[C@@]2(c3ccccc3)[C@@H]3COc4ccc(F)cc4C3=NN2C(=O)C(F)(F)F)CC1 [Compound 3-9, (3S,3aS)-3-[3-(4-acetylpiperazin-1-yl)propyl]-8-fluoro-3-phenyl-2-(trifluoroacetyl)-2,3,3a,4-tetrahydrochromeno[4,3-c]pyrazole] | ≤ 30 µM | active |  |
| CN(C)CCCC1(c2ccccc2)C2COc3ccc(F)cc3C2=NN1C(=O)C(F)(F)F (centres unmarked) [Compound 3-10, {3-[8-fluoro-3-phenyl-2-(trifluoroacetyl)-2,3,3a,4-tetrahydrochromeno[4,3-c]pyrazol-3-yl]propyl}dimethylamine] | ≤ 30 µM |  |  |
| O=C(N1N=C2c3cc(F)ccc3OCC2C1(CCCN1CCOCC1)c1ccccc1)C(F)(F)F (centres unmarked) [Compound 3-11, 8-fluoro-3-(3-morpholin-4-ylpropyl)-3-phenyl-2-(trifluoroacetyl)-2,3,3a,4-tetrahydrochromeno[4,3-c]pyrazole] | ≤ 30 µM |  |  |

Results, then the compound that gave them:

| IC50 | activity of resolved enantiomer (active / inactive) (assay not named) | relative inhibitory activity of the diastereomers (the cis diastereomer (eluted second) compared with the other, assay not named) | Structure (SMILES) |
| --- | --- | --- | --- |
| ≤ 30 µM |  |  | CC(=O)N1N=C2c3cc(F)ccc3OCC2C1(CCC1OCCCO1)c1ccccc1 (mixture of isomers) [Compound 5-4, 2-acetyl-3-[2-(1,3-dioxan-2-yl)ethyl]-8-fluoro-3-phenyl-2,3,3a,4-tetrahydrochromeno[4,3-c]pyrazole] |
| ≤ 30 µM | active |  | CC(=O)N1CCN(CCC[C@@]2(c3ccccc3)[C@@H]3COc4ccc(F)cc4C3=NN2C(C)=O)CC1 (single isomer, unassigned) [Compound 5-5] |
| ≤ 30 µM | active |  | CC(=O)N1CCN(CCC[C@@]2(c3ccccc3)[C@H]3COc4ccc(F)cc4C3=NN2C(C)=O)CC1 (single isomer, unassigned) [Compound 5-6] |
